From patent US7511145B2 (Genelabs Technologies, Inc., priority 2003, dated 2009)

Molecular target: T1, HCV-NS5b (Hepatitis C virus genotype 1b, UniProt Q9WMX2)
T1 construct: (His)6 (C); made in house; host or cells: XL-1 cells (E. coli), IPTG-inducible plasmid, nickel-NTA purification
Test: HCV-NS5b enzyme assay (incorporation of radiolabeled UTP)
Format: biochemical
Details: for % inh@33 / inhibition at 33 µM: enzyme inhibition at compound concentration of 33 uM; for % inh@100: enzyme inhibition at compound concentration of 100 uM; for inhibition at 100 µM: read-out: % inh@100, enzyme inhibition at compound concentration of 100 uM
Method in brief: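 His6-tagged NS5b lacking the C-terminal 21 residues, expressed in XL-1 and Ni-NTA purified. Reaction at pH 7.5 with 5 mM MgCl2, 10 μM each NTP including [3H]-UTP and biotinylated HCV heteropolymeric template, 2 h at 37° C; SPA read-out; % inhibition at 100 and 33 uM versus no-compound control, background subtracted.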

Compound | inhibition at 33 µM [%] | inhibition at 100 µM [%] | other results
O=C(NCCS(=O)(=O)O)c1ccc2c(c1)nc(-c1ccc3nc(-c4ccccc4)cnc3c1)n2C1CCCCC1 [Compound 524] | – | – | % inh@33: 74.09%; % inh@100: 93.58%
COc1ccc(-c2ccc(Cl)cc2)c(-c2ccc3cc(-c4nc5cc(-c6nnn[nH]6)ccc5n4C4CCCCC4)ccc3n2)c1 [Compound 525, 2-(4′-chloro-4-methoxy-biphen-2-yl)-6-[1-cyclohexyl-5-(1H-tetrazol-5-yl)-1H-benzoimidazol-2-yl]-quinoline] | 101 | 101 | –
O=C(O)c1ccc2cc(NC(=O)c3ccc4c(c3)nc(-c3ccc5nc(-c6ccccc6)cnc5c3)n4C3CCCCC3)ccc2c1 [Compound 526, 6-{[1-Cyclohexyl-2-(2-phenyl-quinoxalin-6-yl)-1H-benzoimidazole-5-carbonyl]-amino}-naphthalene-2-carboxylic acid] | 96.8 | 99 | –
COc1ccc(-c2ccc(Cl)cc2)c(-c2ccc3cc(-c4nc5cc(C(=O)O)ccc5n4C(C)C)ccc3n2)c1 [Compound 527, 2-[2-(4′-chloro-4-methoxy-biphen-2-yl)-quinolin-6-yl]-1-isopropyl-1H-benzoimidazole-5-carboxylic acid] | 99.4 | 101 | –
COc1ccc(-c2ccc(Cl)cc2)c(-c2ccc3cc(-c4nc5cc(C(=O)O)ccc5n4C4CC4)ccc3n2)c1 [Compound 528, 2-[2-(4′-chloro-4-methoxy-biphen-2-yl)-quinolin-6-yl]-1-cyclopropyl-1H-benzoimidazole-5-carboxylic acid] | 100 | 101 | –
COc1ccc(-c2ccc(Cl)cc2)c(-c2ccc3cc(-c4nc5cc(C(=O)O)ccc5n4C4CCCC4)ccc3n2)c1 [Compound 529, 2-[2-(4′-chloro-4-methoxy-biphen-2-yl)-quinolin-6-yl]-1-cyclopentyl-1H-benzoimidazole-5-carboxylic acid] | 99.2 | 99.8 | –
COc1ccc(-c2ccc(Cl)cc2)c(-c2ccc3cc(-c4nc5cc(C(=O)O)ccc5n4CC(C)C)ccc3n2)c1 [Compound 530, 2-[2-(4′-Chloro-4-methoxy-biphen-2-yl)-quinolin-6-yl]-1-isobutyl-1H-benzoimidazole-5-carboxylic acid] | 98.2 | 98.2 | –
COc1ccc(-c2ccc(Cl)cc2)c(-c2ccc3cc(-c4nc5cc(C(=O)O)ccc5n4CC4CC4)ccc3n2)c1 [Compound 531, 2-[2-(4′-chloro-4-methoxy-biphen-2-yl)-quinolin-6-yl]-1-cyclopropylmethyl-1H-benzoimidazole-5-carboxylic acid] | 100 | 99.3 | –
COc1ccc(-c2ccc(Cl)cc2)c(-c2ccc3cc(-c4nc5cc(C(=O)O)ccc5n4CCC(C)C)ccc3n2)c1 [Compound 532, 2-[2-(4′-chloro-4-methoxy-biphen-2-yl)-quinolin-6-yl]-1-(3-methyl-butyl)-1H-benzoimidazole-5-carboxylic acid] | 99.6 | 98.8 | –
COc1ccc(-c2ccc(Cl)cc2)c(-c2ccc3cc(-c4nc5cc(C(=O)O)ccc5n4CCN(C)C)ccc3n2)c1 [Compound 533, 2-[2-(4′-chloro-4-methoxy-biphen-2-yl)-quinolin-6-yl]-1-(2-dimethylamino-ethyl)-1H-benzoimidazole-5-carboxylic acid] | 56.8 | 89.8 | –
CCn1c(-c2ccc3nc(-c4cc(OC)ccc4-c4ccc(Cl)cc4)ccc3c2)nc2cc(C(=O)O)ccc21 [Compound 534, 2-[2-(4′-chloro-4-methoxy-biphen-2-yl)-quinolin-6-yl]-1-ethyl-1H-benzoimidazole-5-carboxylic acid] | 90.1 | 101 | –
O=C(O)c1cnc2c(c1)nc(-c1ccc3nc(-c4cc(O)ccc4-c4ccc(Cl)cc4)ccc3c1)n2C1CCCCC1 [Compound 535, 2-[2-(4′-chloro-4-hydroxy-biphen-2-yl)-quinolin-6-yl]-3-cyclohexyl-3H-imidazo[4,5-b]pyridine-6-carboxylic acid] | 101 | 100 | –
COc1ccc(-c2ccc(Cl)cc2)c(-c2ccc3cc(-c4[nH]c5cc(C(=O)O)ccc5c4C4CCCCC4)ccc3n2)c1 [Compound 536, 2-[2-(4′-Chloro-4-methoxy-biphen-2-yl)-quinolin-6-yl]-3-cyclohexyl-1H-indole-6-carboxylic acid] | 97.5 | 98.9 | –
COc1ccc(-c2ccc(Cl)cc2)c(-c2ccc3cc(-c4nc5cc(C(=O)O)cnc5n4C4CCCCC4)ccc3n2)c1 [Compound 537, 2-[2-(4′-chloro-4-methoxy-biphen-2-yl)-quinolin-6-yl]-3-cyclohexyl-3H-imidazo[4,5-b]pyridine-6-carboxylic acid] | 100 | 99.8 | –
CCOC(=O)c1cnc2c(c1)nc(-c1ccc3nc(-c4cc(O)ccc4-c4ccc(Cl)cc4)ccc3c1)n2C1CCCCC1 [Compound 538, 2-[2-(4′-chloro-4-hydroxy-biphen-2-yl)-quinolin-6-yl]-3-cyclohexyl-3H-imidazo[4,5-b]pyridine-6-carboxylic acid Ethyl Ester] | 56.6 | 72.8 | –
O=C(O)c1cnc2c(c1)nc(-c1ccc3nc(-c4cc(C(=O)N5CCCC5)ccc4-c4ccc(Cl)cc4)ccc3c1)n2C1CCCCC1 [Compound 539, 2-{2-[4′-chloro-4-(pyrrolidine-1-carbonyl)-biphen-2-yl]-quinolin-6-yl}-3-cyclohexyl-3H-imidazo[4,5-b]pyridine-6-carboxylic acid] | 104 | 102 | –
O=C(c1ccc(-c2ccc(Cl)cc2)c(-c2ccc3cc(-c4nc5ccccc5n4C4CCCCC4)ccc3n2)c1)N1CCCC1 [Compound 540] | – | – | % inh@33: 91.13%; % inh@100: 95.05%
NC(=O)CC[C@H](NC(=O)c1ccc2c(c1)nc(-c1ccc3nc(-c4ccccc4)cnc3c1)n2C1CCCCC1)C(=O)O [Compound 541, 4-Carbamoyl-2-{[1-cyclohexyl-2-(2-phenyl-quinoxalin-6-yl)-1H-benzoimidazole-5-carbonyl]-amino}-butyric acid] | 76.1 | 98.1 | –
NC(=O)[C@H](Cc1ccccc1)NC(=O)c1ccc2cc(-c3nc4cc(C(=O)O)ccc4n3C3CCCCC3)ccc2n1 [Compound 542, 2-[2-(1-Carbamoyl-2-phenylethylcarbamoyl)quinolin-6-yl]-1-cyclohexyl-1H-benzimidazole-5-carboxylic acid] | 81.1 | 98.6 | –
COc1ccc(-c2ccc(Cl)cc2)c(-c2ccc3cc(-c4nc5cc(C(=O)O)ccc5n4C4CCC(C)CC4)ccc3n2)c1 (centres unmarked) [Compound 543, 2-[2-(4′-chloro-4-methoxy-biphen-2-yl)-quinolin-6-yl]-1-(4-methyl-cyclohexyl)-1H-benzoimidazole-5-carboxylic acid] | 102 | 102 | –
COc1ccc(-c2ccccc2F)c(-c2ccc3cc(-c4nc5cc(C(=O)O)ccc5n4C4CCCCC4)ccc3n2)c1 [Compound 544, 1-Cyclohexyl-2-[2-(2′-fluoro-4-methoxy-biphen-2-yl)-quinolin-6-yl]-1H-benzoimidazole-5-carboxylic acid] | 102 | 100 | –
COc1ccc(C2CCCCC2)c(-c2ccc3cc(-c4nc5cc(C(=O)O)ccc5n4C4CCCCC4)ccc3n2)c1 [Compound 545, 1-Cyclohexyl-2-[2-(2-cyclohexyl-5-methoxy-phenyl)-quinolin-6-yl]-1H-benzoimidazole-5-carboxylic acid] | 99.2 | 101 | –
CN(C(=O)c1ccc2cc(-c3nc4cc(C(=O)O)ccc4n3C3CCCCC3)ccc2n1)c1ccc(Cl)cc1 [Compound 546] | 95.3 | 102 | –
COc1ccc(-c2ccc(Cl)cc2)c(-c2ccc3cc(-c4nc5cc(C(=O)O)ccc5n4C4CCC(C)CC4)ccc3n2)c1 (centres unmarked) [Compound 547, 2-[2-(4′-chloro-4-methoxy-biphen-2-yl)-quinolin-6-yl]-1-(4-methyl-cyclohexyl)-1H-benzoimidazole-5-carboxylic acid] | – | – | % inh@33 (33 µM): 102.71%; % inh@100 (100 µM): 101.82%
COc1ccc(-c2ccccc2C)c(-c2ccc3cc(-c4nc5cc(C(=O)O)ccc5n4C4CCCCC4)ccc3n2)c1 [Compound 548] | 103 | 101 | –
O=C(O)c1ccc2c(c1)nc(-c1ccc3nc(-c4cc(C(=O)N5CCCC5)ccc4-c4ccc(F)cc4)ccc3c1)n2C1CCCCC1 [Compound 549, 1-Cyclohexyl-2-{2-[4′-fluoro-4-(pyrrolidine-1-carbonyl)biphen-2-yl]quinolin-6-yl}-1H-benzimidazole-5-carboxylic acid] | 100 | 102 | –
CC(C)N(C(=O)c1ccc2cc(-c3nc4cc(C(=O)O)ccc4n3C3CCCCC3)ccc2n1)c1ccc(Cl)cc1 [Compound 550, 2-{2-[(4-Chlorophenyl)isopropylcarbamoyl]quinolin-6-yl}-1-cyclohexyl-1H-benzimidazole-5-carboxylic acid] | 99.1 | 102 | –
O=C(O)c1ccc2c(c1)nc(-c1ccc3nc(C(=O)N(c4ccc(Cl)cc4)C4CCCCC4)ccc3c1)n2C1CCCCC1 [Compound 551, 2-{2-[(4-Chlorophenyl)cyclohexylcarbamoyl]quinolin-6-yl}-1-cyclohexyl-1H-benzimidazole-5-carboxylic acid] | 87.5 | 95.7 | –
